Laboratory results: patent US7638540B2, “Benzofuran compound and medicinal composition containing the same” (The New Industry Research Organization, priority 2003, dated 2009)

melting point [°C]	Structure (SMILES)
151.3 to 153.3	COc1ccc2oc(-c3csc(-c4ccccc4)n3)c(-c3ccc(Cl)cc3)c2c1 [Example 215, 4-[3-(4-chlorophenyl)-5-methoxybenzofuran-2-yl]-2-phenylthiazole]
206.6 to 209.5	COc1cccc2c(NC(C)=O)c(C(C)=O)oc12 [Example 208, N-(2-acetyl-7-methoxybenzofuran-3-yl)acetamide]
236.5 to 237.8	COc1cccc2c(NC(=O)/C=C/c3ccccc3)c(C(=O)c3ccc(Br)cc3)oc12 [Example 179, (E)-N-[2-(4-bromobenzoyl)-7-methoxybenzofuran-3-yl]-3-phenylacrylamide]
167.4 to 167.9	Cc1nc(-c2cc3cc(Br)ccc3o2)cs1 [Example 216, 4-(5-bromobenzofuran-2-yl)-2-methylthiazole]
196 to 197.7	COc1ccc2oc(-c3csc(N)n3)c(-c3ccc(Cl)cc3)c2c1 [Example 218, 4-[3-(4-chlorophenyl)-5-methoxybenzofuran-2-yl]thiazol-2-ylamine]
185.5 to 187.8	Brc1ccc2oc(-c3csc(-c4ccccc4)n3)cc2c1 [Example 212, 4-(5-bromobenzofuran-2-yl)-2-phenylthiazole]
248	CN(C)/C=C/C(=O)c1oc2ccc(Br)cc2c1NC(=O)/C=C/c1ccccc1 [Example 176, (E,E)-N-[5-bromo-2-(3-dimethylaminoacryloyl)-benzofuran-3-yl]-3-phenylacrylamide]
128 to 130	CC(=O)NC(C)c1cc2ccccc2o1 (stereo not drawn) [Example 190, N-(1-benzofuran-2-ylethyl)acetamide]
186.2 to 188.3	COc1cccc2c(NC(=O)CCl)c(C(C)=O)oc12 [Example 205, N-(2-acetyl-7-methoxybenzofuran-3-yl)-2-chloroacetamide]
220 to 221.3	COc1cccc2c(NC(=O)/C=C/c3ccccc3)c(Cl)oc12 [Example 181, (E)-N-(2-chloro-7-methoxybenzofuran-3-yl)-3-phenylacrylamide]
214.4 to 215.1	CC(=O)c1oc2ccc(Br)cc2c1NC(=O)CC#N [Example 193, N-(2-acetyl-5-bromobenzofuran-3-yl)-2-cyanoacetamide]
200 to 202	C/C=C/C(=O)Nc1c(Cl)oc2ccc(Br)cc12 [Example 184, (E)-2-butenoic acid (5-bromo-2-chlorobenzofuran-3-yl)amide]
203.5 to 205	COc1ccc2oc(-c3nc(N=CN(C)C)sc3C=O)c(-c3ccc(Cl)cc3)c2c1 [Example 221, N′-{4-[3-(4-chlorophenyl)-5-methoxybenzofuran-2-yl]-5-formylthiazol-2-yl}-N,N-dimethylformamidine]
160.6 to 161.1	COc1cccc2c(NC(=O)/C=C/c3ccccc3)c(C(C)=O)oc12 [Example 182, (E)-N-(2-acetyl-7-methoxybenzofuran-3-yl)-3-phenylacrylamide]

Further lines, the compound ahead of its results:

Structure (SMILES)	melting point [°C]
CCN(CC)C(=O)/C=C(\C)c1ccc(OC(c2ccccc2)c2ccccc2)c2oc(C(C)=O)cc12 [Example 4, (E)-3-(2-acetyl-7-benzhydryloxybenzofuran-4-yl)-N,N-diethyl-2-butenamide]	163.3 to 165.2
C/C(O)=C(\C#N)C(=O)Nc1c(C(=O)/C=C/c2ccccc2)oc2ccc(Br)cc12 [Example 174, 2-cyano-3-hydroxy-(Z)-2-butenoic acid [5-bromo-2-((E)-3-phenylacryloyl)benzofuran-3-yl]amide]	261.5 to 262.8
CCN(CC)C(=O)/C=C(\C)c1ccc2oc(C(=O)c3ccc(C#N)cc3)c(NC(=O)/C(C#N)=C(/C)O)c2c1 [Example 109, N-[2-(4-cyanobenzoyl)-5-((E)-2-diethylcarbamoyl-1-methylvinyl)benzofuran-3-yl]-2-cyano-3-hydroxy-(Z)-2-butenamide]	219.5 to 222.8
CCCCc1oc2ccccc2c1/C(Cl)=C/C=C/C(=O)Nc1ccc(OC)cc1 [Example 135, (2E,4Z)-5-(2-butylbenzofuran-3-yl)-5-chloropenta-2,4-dienoic acid (4-methoxyphenyl)amide]	91.3 to 93.2
COc1ccc(NC(=O)/C(C#N)=C(/C)O)c2cc(C(C)=O)oc12 [Example 112, (Z)-N-(2-acetyl-7-methoxybenzofuran-4-yl)-2-cyano-3-hydroxy-2-butenamide]	243.4 to 246.4
CCN(CC)C(=O)/C=C(\C)c1ccc2oc(C(=O)c3ccc(C#N)cc3)c(NC(=O)c3cnoc3C)c2c1 [Example 89, (E)-N-[2-(4-cyanobenzoyl)-5-(2-diethylcarbamoyl-1-methylvinyl)benzofuran-3-yl]-5-methylisoxazole-4-carboxamide]	202.6 to 205.5
COc1ccc(NC(=O)/C=C(\C)c2cc3cccc(OC(c4ccccc4)c4ccccc4)c3o2)cc1OC [Example 45, (E)-3-(7-benzhydryloxybenzofuran-2-yl)-N-(3,4-dimethoxyphenyl)-2-butenamide]	93.9 to 94.5
COc1cccc2c(NC(=O)/C(C#N)=C(/C)O)c(C(=O)c3ccc(Br)cc3)oc12 [Example 99, (Z)-N-[2-(4-bromobenzoyl)-7-methoxybenzofuran-3-yl]-2-cyano-3-hydroxy-2-butenamide]	131.7 to 133.4
COc1ccc(CCNC(=O)/C=C(\C)c2cc3cccc(OC(C)c4ccccc4)c3o2)cc1OC (stereo not drawn) [Example 164, (E)-3-[7-(1-phenylethoxy)benzofuran-2-yl]-2-butenoic acid [2-(3,4-dimethoxyphenyl)ethyl]amide]	109 to 113
CC(=O)c1oc2ccc(C#N)cc2c1NC(=O)/C(C#N)=C(/C)O [Example 93, (Z)-N-(2-acetyl-5-cyanobenzofuran-3-yl)-2-cyano-3-hydroxy-2-butenamide]	216 to 218
C/C(O)=C(\C#N)C(=O)Nc1c(C(N)=O)oc2ccccc12 [Example 101, (Z)-3-(2-cyano-3-hydroxy-2-butenoylamino)benzofurane-2-carboxamide]	265
CC(=O)c1oc2ccc(/C(C)=C/C(=O)N3CCOCC3)cc2c1N [Example 23, (E)-3-(2-acetyl-3-aminobenzofuran-5-yl)-1-morpholino-2-buten-1-one]	256.4 to 262.1
Cc1oc2ccc(Br)cc2c1/C(Cl)=C/C=O [Example 151, (Z)-3-(5-bromo-2-methylbenzofuran-3-yl)-3-chloropropenal]	99.8 to 104
CCOC(=O)/C=C(\C)c1ccc2oc(/C(Cl)=C/C=O)cc2c1 [Example 146, Ethyl 3-[2-(1-chloro-3-oxo-(Z)-propenyl)benzofuran-5-yl]-(E)-2-butenoate]	99.5 to 101
CC(=O)c1oc2ccc(Br)cc2c1NC(=O)c1cnoc1C [Example 65, N-(2-acetyl-5-bromobenzofuran-3-yl)-5-methylisoxazole-4-carboxamide]	206 to 208
CCOC(=O)c1oc2ccccc2c1NC(=O)/C(C#N)=C(/C)O [Example 107, Ethyl (Z)-3-(2-cyano-3-hydroxy-2-butenoylamino)benzofurane-2-carboxylate]	147.5 to 150.1
CCN(CC)C(=O)/C=C(\C)c1ccc2oc(C(=O)Nc3cccc(OC)c3)c(N)c2c1 [Example 158, (E)-3-amino-5-(2-diethylcarbamoyl-1-methylvinyl)benzofurane-2-carboxylic acid (3-methoxyphenyl)amide]	155 to 157
N#C/C=C/C=C(\Cl)c1cc2cc(Br)ccc2o1 [Example 154, (2E,4Z)-5-(5-bromobenzofuran-2-yl)-5-chloropenta-2,4-dienenitrile]	179 to 185
CC(=O)c1oc2ccc(/C(C)=C/C(=O)N3CCN(c4ccccc4)CC3)cc2c1NC(=O)/C(C#N)=C(/C)O [Example 95, N-{2-acetyl-5-[1-methyl-3-oxo-3-(4-phenylpiperazin-1-yl)-(E)-1-propenyl]benzofuran-3-yl}-2-cyano-3-hydroxy-(Z)-2-butenamide]	167.6 to 168.7
COC(=O)COc1cccc2cc(C(C)NC(=O)c3cnoc3C)oc12 (stereo not drawn) [Example 124, Methyl (2-{1-[(5-methylisoxazole-4-carbonyl)amino]ethyl}benzofuran-7-yloxy)acetate]	111.8 to 114.6
O=C(/C=C/c1ccccc1)Nc1c(C(=O)c2ccc(Cl)cc2)oc2ccc(Br)cc12 [Example 113, (E)-N-[5-bromo-2-(4-chlorobenzoyl)benzofuran-3-yl]-3-phenylacrylamide]	171.2 to 171.8
COc1ccc(CCNC(=O)/C=C(\C)c2ccc(C(=O)c3oc4c(OC)cccc4c3NC(=O)/C(C#N)=C(/C)O)cc2)cc1OC [Example 106, N-[2-(4-{(E)-2-[2-(3,4-dimethoxyphenyl)ethylcarbamoyl]-1-methylvinyl}benzoyl)-7-methoxybenzofuran-3-yl]-2-cyano-3-hydroxy-(Z)-2-butenamide]	202.9 to 205.8
COc1cccc2cc(/C(Cl)=C/C=C/C#N)oc12 [Example 61, (2E,4Z)-5-chloro-5-(7-methoxybenzofuran-2-yl)penta-2,4-dienenitrile]	98.9 to 101.2
C/C=C/C(=O)Nc1c(C(=O)c2ccc(Cl)cc2)oc2ccc(Br)cc12 [Example 115, (E)-N-[5-bromo-2-(4-chlorobenzoyl)benzofuran-3-yl]-2-butenamide]	210.4 to 212.8
C/C=C/C(=O)Nc1c(C(C)=O)oc2cc(OC)ccc12 [Example 116, (E)-N-(2-acetyl-6-methoxybenzofuran-3-yl)-2-butenamide]	153.8 to 155.7
CCN(CC)C(=O)/C=C(\C)c1ccc(OCCCSc2ccc(Cl)cc2)c2oc(C(C)=O)cc12 [Example 139, (E)-3-{2-acetyl-7-(3-(4-chlorophenylsulfanyl)propoxy)benzofuran-4-yl}-2-butenoic acid diethylamide]	110.5 to 113.5
C/C(=C\C(=O)N1CCOCC1)c1ccc2oc(C(=O)c3ccccc3)cc2c1 [Example 25, (E)-3-(2-benzoylbenzofuran-5-yl)-1-morpholino-2-buten-1-one]	115.5 to 117
CCN(CC)C(=O)/C=C(\C)c1ccc(OCCCCl)c2oc(C(C)=O)cc12 [Example 137, (E)-3-[2-acetyl-7-(3-chloropropoxy)benzofuran-4-yl]-2-butenoic acid diethylamide]	80.6 to 82.1
